From patent US6914045B2, “Glycopeptide antibiotics” (Wyeth Holdings Corporation, priority 2001, dated 2005)
≈ marks a conversion by molar mass, not a printed value. Where two headings read alike, the source gives them in different places. Blank lines part the entries; values can stand above or below the molecule they belong to. Numbered stars: 1 amine (or outer) side, 2 acyl side, 3 side chain; on linkers, the order of the positions; unused ones are H or OH. Square brackets hold non-standard residues; d marks the D form. Peptide text beside a SMILES is read from it. ξ: configuration not given here. X1 = N=C1NCC(C(O)C(N[*:1])C(=O)[*:2])N1C1OC(CO)C(O)C(O)C1O; ξEnduracididine(βξ-OH,4'ξ) = N=C1NCC(C(O)C(N)C(=O)O)N1; Tyr(3-NO2) = N[CH](Cc1ccc(O)c([N+](=O)[O-])c1)C(=O)O; Tyr(3,5-Br2) = N[CH](Cc1cc(Br)c(O)c(Br)c1)C(=O)O; ξPhe(βξ-Me) = CC(c1ccccc1)C(N)C(=O)O

Tests used:
Assay in all cases: in vitro antibacterial evaluation, MIC by broth dilution
Assay type in all cases: cell-based
Streptococcus sp. = tested on: Streptococcus sp.
Description: (§1) Methods for in vitro Antibacterial Evaluation (Table 1)
(§2) The minimum inhibitory concentration (MIC), the lowest concentration of the antibiotic which inhibits growth of the test organism, is determined by the broth dilution method using Muller-Hinton II […] (Baltimore Biological Laboratories) following the recommendations of the National Committee for Clinical Laboratory Standards [Methods for dilution antimicrobial susceptibility tests for bacteria that grow aerobically, approved standard M7-A2, National Committee for Clinical Laboratory Standards, Villanova, Pa.].
(§3) An inoculum level of 5×10^5 CFU/mL, and a range of antibiotic concentrations (64-0.06 μg/mL) is used. […] The test organisms include a spectrum of Gram-positive bacteria comprised of Staphylococcus sp., Streptococcus sp. and Enterococcus sp. These organisms include recent clinical isolates that are resistant to methicillin, penicillin and/or vancomycin.

Staphylococcus sp. = tested on: Staphylococcus sp.
Description: as §1, §2, §3

Enterococcus sp. = tested on: Enterococcus sp.
Description: as §1, §2, §3

Escherichia coli = tested on: Escherichia coli
Method in brief: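 MIC is the lowest antibiotic concentration (tested 64-0.06 μg/mL) preventing growth of a 5×10^5 CFU/mL inoculum. Determined by broth dilution in Mueller-Hinton II medium following NCCLS standard M7-A2.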

[1] = strain GC 4564, broth dilution, 18 hours at 35° C.
[2] = strain GC 4565, broth dilution, 18 hours at 35° C.
[3] = strain ID-3187, broth dilution, 18 hours at 35° C.
[4] = strain ATCC 29212, broth dilution, 18 hours at 35° C.
[5] = strain GC 2242, broth dilution, 18 hours at 35° C.
[6] = strain GC 2243, broth dilution, 18 hours at 35° C.
[7] = strain GC 4552, broth dilution, 18 hours at 35° C.
[8] = strain GC 4553, broth dilution, 18 hours at 35° C.
[9] = strain GC 4554, broth dilution, 18 hours at 35° C.
[10] = strain GC 4556, broth dilution, 18 hours at 35° C.
[11] = strain GC 4557, broth dilution, 18 hours at 35° C.
[12] = strain GC 4558, broth dilution, 18 hours at 35° C.
[13] = strain ATCC 25922, broth dilution, 18 hours at 35° C.
[14] = strain GC 4559, broth dilution, 18 hours at 35° C.
[15] = strain GC 4560, broth dilution, 18 hours at 35° C.

MIC Streptococcus agalactiae (GC 4564) (Streptococcus sp.; [1]): >128 mg/L | MIC Streptococcus pneumoniae (GC 4565) (Streptococcus sp.; [2]): >128 mg/L | MIC Streptococcus pyogenes (ID-3187) (Streptococcus sp.; [3]): >128 mg/L | MIC Staphylococcus aureus (ATCC 29213) (Staphylococcus sp.; strain ATCC 29213, broth dilution, 18 hours at 35° C.): >128 mg/L | MIC Staphylococcus aureus (GC 1131) (Staphylococcus sp.; strain GC 1131, broth dilution, 18 hours at 35° C.): >128 mg/L | MIC Staphylococcus aureus (GC 4541) (Staphylococcus sp.; strain GC 4541, broth dilution, 18 hours at 35° C.): >128 mg/L | MIC Staphylococcus aureus (GC 4542) (Staphylococcus sp.; strain GC 4542, broth dilution, 18 hours at 35° C.): >128 mg/L | MIC Staphylococcus aureus-SMITH (GC 4543) (Staphylococcus sp.; strain GC 4543, broth dilution, 18 hours at 35° C.): >128 mg/L | MIC Staphylococcus aureus (GC 4544) (Staphylococcus sp.; strain GC 4544, broth dilution, 18 hours at 35° C.): >128 mg/L | MIC Staphylococcus aureus (GC 4545) (Staphylococcus sp.; strain GC 4545, broth dilution, 18 hours at 35° C.): >128 mg/L | MIC Coagulase Negative Staphylococcus (GC 4547) (Staphylococcus sp.; strain GC 4547, broth dilution, 18 hours at 35° C.): >128 mg/L | MIC Coagulase Negative Staphylococcus (GC 4548) (Staphylococcus sp.; strain GC 4548, broth dilution, 18 hours at 35° C.): >128 mg/L | MIC Coagulase Negative Staphylococcus (GC 4549) (Staphylococcus sp.; strain GC 4549, broth dilution, 18 hours at 35° C.): 128 mg/L (≈ 113 µM) | MIC Coagulase Negative Staphylococcus (GC 4551) (Staphylococcus sp.; strain GC 4551, broth dilution, 18 hours at 35° C.): >128 mg/L | MIC Coagulase Negative Staphylococcus (ID-3941) (Staphylococcus sp.; strain ID-3941, broth dilution, 18 hours at 35° C.): 128 mg/L (≈ 113 µM) | MIC Enterococcus faecalis (ATCC 29212) (Enterococcus sp.; [4]): >128 mg/L | MIC Enterococcus faecalis (GC 2242) (Enterococcus sp.; [5]): >128 mg/L | MIC Enterococcus faecium (GC 2243) (Enterococcus sp.; [6]): >128 mg/L | MIC Enterococcus faecalis (GC 4552) (Enterococcus sp.; [7]): >128 mg/L | MIC Enterococcus faecalis (GC 4553) (Enterococcus sp.; [8]): >128 mg/L | MIC Enterococcus faecalis (GC 4554) (Enterococcus sp.; [9]): >128 mg/L | MIC Enterococcus faecium (GC 4556) (Enterococcus sp.; [10]): >128 mg/L | MIC Enterococcus faecium (GC 4557) (Enterococcus sp.; [11]): >128 mg/L | MIC Enterococcus avium (GC 4558) (Enterococcus sp.; [12]): >128 mg/L | MIC Escherichia coli (ATCC 25922) (Escherichia coli; [13]): >128 mg/L | MIC Escherichia coli (GC 4559) (Escherichia coli; [14]): >128 mg/L | MIC Escherichia coli (GC 4560) (Escherichia coli; [15]): 64 mg/L (≈ 56.7 µM)
SMILES: CC(c1ccccc1)C1NC(=O)CNC(=O)C(CO)NC(=O)C(C(O)C2CNC(=N)N2C2OC(CO)C(O)C(O)C2O)NC(=O)C(C(O)C2CNC(=N)N2)NC(=O)C(Cc2cc(Br)c(O)c(Br)c2)NC1=O (stereo not drawn) [Example 3, Cyclo[glycyl-β-methylphenylalanyl-3,5-dibromotyrosyl-3-(2-iminoimidazolidin-4-yl)seryl-3-(3-hexopyranosyl-2-iminoimidazolidin-4-yl)serylseryl]] (cyclo(G[ξPhe(βξ-Me)][Tyr(3,5-Br2)][ξEnduracididine(βξ-OH,4'ξ)][X1]S); configuration not given here)
MIC Staphylococcus haemolyticus (GC 4546) (Staphylococcus sp.; strain GC 4546, broth dilution, 18 hours at 35° C.): >128 mg/L

SMILES: CC(c1ccccc1)C1NC(=O)CNC(=O)C(CO)NC(=O)C(C(O)C2CNC(=N)N2C2OC(CO)C(O)C(O)C2O)NC(=O)C(C(O)C2CNC(=N)N2)NC(=O)C(Cc2ccc(OC3OC(CO)C(OC4OC(CO)C(O)C(O)C4O)C(O)C3O)c(I)c2)NC1=O (stereo not drawn) [Example 6, Cyclo[glycyl-β-methylphenylalanyl-O-(4-O-hexolpyranosylhexolpyranosyl)-3-iodo-tyrosyl-3-(2-iminoimidazolidin-4-yl)seryl-3-(3-hexolpyranosyl-2-iminoimidazolidin-4-yl)serylseryl]]
MIC Streptococcus agalactiae (GC 4564) (Streptococcus sp.): >128 mg/L | MIC Streptococcus pneumoniae (GC 4565) (Streptococcus sp.): >128 mg/L | MIC Streptococcus pyogenes (ID-3187) (Streptococcus sp.): >128 mg/L | MIC Coagulase Negative Staphylococcus (GC 4547) (Staphylococcus sp.): >128 mg/L | MIC Coagulase Negative Staphylococcus (GC 4548) (Staphylococcus sp.): >128 mg/L | MIC Coagulase Negative Staphylococcus (GC 4549) (Staphylococcus sp.): >128 mg/L | MIC Coagulase Negative Staphylococcus (GC 4551) (Staphylococcus sp.): >128 mg/L | MIC Coagulase Negative Staphylococcus (ID-3941) (Staphylococcus sp.): >128 mg/L | MIC Staphylococcus aureus (ATCC 29213) (Staphylococcus sp.): >128 mg/L | MIC Staphylococcus aureus (GC 1131) (Staphylococcus sp.): >128 mg/L | MIC Staphylococcus aureus (GC 4541) (Staphylococcus sp.): >128 mg/L | MIC Staphylococcus aureus (GC 4542) (Staphylococcus sp.): >128 mg/L | MIC Staphylococcus aureus (GC 4544) (Staphylococcus sp.): >128 mg/L | MIC Staphylococcus aureus (GC 4545) (Staphylococcus sp.): >128 mg/L | MIC Staphylococcus aureus-SMITH (GC 4543) (Staphylococcus sp.): >128 mg/L | MIC Staphylococcus haemolyticus (GC 4546) (Staphylococcus sp.): >128 mg/L | MIC Enterococcus avium (GC 4558) (Enterococcus sp.): >128 mg/L | MIC Enterococcus faecalis (ATCC 29212) (Enterococcus sp.): >128 mg/L | MIC Enterococcus faecalis (GC 2242) (Enterococcus sp.): >128 mg/L | MIC Enterococcus faecalis (GC 4552) (Enterococcus sp.): >128 mg/L | MIC Enterococcus faecalis (GC 4553) (Enterococcus sp.): >128 mg/L | MIC Enterococcus faecalis (GC 4554) (Enterococcus sp.): >128 mg/L | MIC Enterococcus faecium (GC 2243) (Enterococcus sp.): >128 mg/L | MIC Enterococcus faecium (GC 4556) (Enterococcus sp.): >128 mg/L | MIC Enterococcus faecium (GC 4557) (Enterococcus sp.): >128 mg/L | MIC Escherichia coli (ATCC 25922) (Escherichia coli): >128 mg/L | MIC Escherichia coli (GC 4559) (Escherichia coli): >128 mg/L | MIC Escherichia coli (GC 4560) (Escherichia coli): >128 mg/L

MIC Streptococcus agalactiae (GC 4564) (Streptococcus sp.; [1]): >128 mg/L | MIC Streptococcus pneumoniae (GC 4565) (Streptococcus sp.; [2]): >128 mg/L | MIC Streptococcus pyogenes (ID-3187) (Streptococcus sp.; [3]): >128 mg/L | MIC Staphylococcus aureus (ATCC 29213) (Staphylococcus sp.; broth dilution, 18 hours at 35° C., strain ATCC 29213): >128 mg/L | MIC Staphylococcus aureus (GC 1131) (Staphylococcus sp.; broth dilution, 18 hours at 35° C., strain GC 1131): >128 mg/L | MIC Staphylococcus aureus (GC 4541) (Staphylococcus sp.; broth dilution, 18 hours at 35° C., strain GC 4541): >128 mg/L | MIC Staphylococcus aureus (GC 4542) (Staphylococcus sp.; broth dilution, 18 hours at 35° C., strain GC 4542): >128 mg/L | MIC Staphylococcus aureus-SMITH (GC 4543) (Staphylococcus sp.; broth dilution, 18 hours at 35° C., strain GC 4543): >128 mg/L | MIC Staphylococcus aureus (GC 4544) (Staphylococcus sp.; broth dilution, 18 hours at 35° C., strain GC 4544): >128 mg/L | MIC Staphylococcus aureus (GC 4545) (Staphylococcus sp.; broth dilution, 18 hours at 35° C., strain GC 4545): >128 mg/L | MIC Coagulase Negative Staphylococcus (GC 4547) (Staphylococcus sp.; broth dilution, 18 hours at 35° C., strain GC 4547): >128 mg/L | MIC Coagulase Negative Staphylococcus (GC 4548) (Staphylococcus sp.; broth dilution, 18 hours at 35° C., strain GC 4548): >128 mg/L | MIC Coagulase Negative Staphylococcus (GC 4549) (Staphylococcus sp.; broth dilution, 18 hours at 35° C., strain GC 4549): >128 mg/L | MIC Coagulase Negative Staphylococcus (GC 4551) (Staphylococcus sp.; broth dilution, 18 hours at 35° C., strain GC 4551): >128 mg/L | MIC Coagulase Negative Staphylococcus (ID-3941) (Staphylococcus sp.; broth dilution, 18 hours at 35° C., strain ID-3941): >128 mg/L | MIC Enterococcus faecalis (ATCC 29212) (Enterococcus sp.; [4]): >128 mg/L | MIC Enterococcus faecalis (GC 2242) (Enterococcus sp.; [5]): >128 mg/L | MIC Enterococcus faecium (GC 2243) (Enterococcus sp.; [6]): >128 mg/L | MIC Enterococcus faecalis (GC 4552) (Enterococcus sp.; [7]): >128 mg/L | MIC Enterococcus faecalis (GC 4553) (Enterococcus sp.; [8]): >128 mg/L | MIC Enterococcus faecalis (GC 4554) (Enterococcus sp.; [9]): >128 mg/L | MIC Enterococcus faecium (GC 4556) (Enterococcus sp.; [10]): >128 mg/L | MIC Enterococcus faecium (GC 4557) (Enterococcus sp.; [11]): >128 mg/L | MIC Enterococcus avium (GC 4558) (Enterococcus sp.; [12]): >128 mg/L | MIC Escherichia coli (ATCC 25922) (Escherichia coli; [13]): >128 mg/L | MIC Escherichia coli (GC 4559) (Escherichia coli; [14]): >128 mg/L | MIC Escherichia coli (GC 4560) (Escherichia coli; [15]): >128 mg/L
SMILES: CC(c1ccccc1)C1NC(=O)CNC(=O)C(CO)NC(=O)C(C(O)C2CNC(=N)N2C2OC(CO)C(O)C(O)C2O)NC(=O)C(C(O)C2CNC(=N)N2)NC(=O)C(Cc2ccc(O)c([N+](=O)[O-])c2)NC1=O (stereo not drawn) [Example 8, Cyclo[glycyl-β-methylphenylalanyl-3-nitrotyrosyl-3-(2-iminoimidazolidin-4-yl)seryl-3-(3-hexopyranosyl-2-iminoimidazolidin-4-yl)serylseryl]] (cyclo(G[ξPhe(βξ-Me)][Tyr(3-NO2)][ξEnduracididine(βξ-OH,4'ξ)][X1]S); configuration not given here)
MIC Staphylococcus haemolyticus (GC 4546) (Staphylococcus sp.; broth dilution, 18 hours at 35° C., strain GC 4546): >128 mg/L
